Earlier results in PMC9516332 (Frontiers in Oncology, 2022).
Like-named read-outs stand apart in the source and are kept apart here.

Legend:
[1] = target: panel of 255 wild-type kinases (Homo sapiens, UniProt O75676); conditions: MSK2, 1 µmol/L single concentration, cited from earlier work
[2] = target: T1, panel of 255 wild-type kinases (Homo sapiens, UniProt Q92630); conditions: kinase DYRK2, 1 µmol/L single concentration, cited from earlier work
T1 sequence (Q92630 1-601): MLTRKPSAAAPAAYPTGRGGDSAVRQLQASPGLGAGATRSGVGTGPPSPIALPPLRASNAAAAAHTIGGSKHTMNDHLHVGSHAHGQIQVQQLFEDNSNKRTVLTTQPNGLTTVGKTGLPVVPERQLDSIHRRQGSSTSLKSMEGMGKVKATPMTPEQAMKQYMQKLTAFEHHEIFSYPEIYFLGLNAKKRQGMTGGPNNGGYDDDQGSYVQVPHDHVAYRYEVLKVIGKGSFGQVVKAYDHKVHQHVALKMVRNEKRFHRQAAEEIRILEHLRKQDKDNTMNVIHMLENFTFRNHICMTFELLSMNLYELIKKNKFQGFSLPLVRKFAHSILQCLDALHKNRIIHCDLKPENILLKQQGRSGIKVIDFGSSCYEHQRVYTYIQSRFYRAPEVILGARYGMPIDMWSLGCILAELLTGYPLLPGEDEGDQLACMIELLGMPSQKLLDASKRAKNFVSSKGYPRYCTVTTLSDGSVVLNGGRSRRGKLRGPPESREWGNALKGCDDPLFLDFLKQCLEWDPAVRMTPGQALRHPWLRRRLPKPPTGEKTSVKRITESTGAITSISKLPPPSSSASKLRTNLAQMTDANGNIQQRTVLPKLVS

[3] = target: panel of 255 wild-type kinases (Homo sapiens, UniProt P35968); conditions: kinase KDR, 1 µmol/L single concentration, cited from earlier work
[4] = target: panel of 255 wild-type kinases (Homo sapiens, UniProt P08069); conditions: kinase IGF1R, 1 µmol/L single concentration, cited from earlier work
[5] = target: panel of 255 wild-type kinases (Homo sapiens, UniProt Q13557); conditions: CaMK2δ kinase assay, 1 µmol/L single concentration, cited from earlier work
[6] = target: panel of 255 wild-type kinases (Homo sapiens, UniProt P06493); conditions: CDC2/CycB1 kinase assay, 1 µmol/L single concentration, cited from earlier work
[7] = target: panel of 255 wild-type kinases (Homo sapiens, UniProt Q9Y463); conditions: kinase DYRK1B, 1 µmol/L single concentration, cited from earlier work
[8] = target: panel of 255 wild-type kinases (Homo sapiens, UniProt Q16539); conditions: p38α, 1 µmol/L single concentration, cited from earlier work
[9] = target: panel of 255 wild-type kinases (Homo sapiens, UniProt Q8N4C8); conditions: MINK, 1 µmol/L single concentration, cited from earlier work
[10] = target: T2, panel of 255 wild-type kinases (Homo sapiens, UniProt Q15139); conditions: kinase PKD1, 1 µmol/L single concentration, cited from earlier work
T2 sequence (Q15139 1-912): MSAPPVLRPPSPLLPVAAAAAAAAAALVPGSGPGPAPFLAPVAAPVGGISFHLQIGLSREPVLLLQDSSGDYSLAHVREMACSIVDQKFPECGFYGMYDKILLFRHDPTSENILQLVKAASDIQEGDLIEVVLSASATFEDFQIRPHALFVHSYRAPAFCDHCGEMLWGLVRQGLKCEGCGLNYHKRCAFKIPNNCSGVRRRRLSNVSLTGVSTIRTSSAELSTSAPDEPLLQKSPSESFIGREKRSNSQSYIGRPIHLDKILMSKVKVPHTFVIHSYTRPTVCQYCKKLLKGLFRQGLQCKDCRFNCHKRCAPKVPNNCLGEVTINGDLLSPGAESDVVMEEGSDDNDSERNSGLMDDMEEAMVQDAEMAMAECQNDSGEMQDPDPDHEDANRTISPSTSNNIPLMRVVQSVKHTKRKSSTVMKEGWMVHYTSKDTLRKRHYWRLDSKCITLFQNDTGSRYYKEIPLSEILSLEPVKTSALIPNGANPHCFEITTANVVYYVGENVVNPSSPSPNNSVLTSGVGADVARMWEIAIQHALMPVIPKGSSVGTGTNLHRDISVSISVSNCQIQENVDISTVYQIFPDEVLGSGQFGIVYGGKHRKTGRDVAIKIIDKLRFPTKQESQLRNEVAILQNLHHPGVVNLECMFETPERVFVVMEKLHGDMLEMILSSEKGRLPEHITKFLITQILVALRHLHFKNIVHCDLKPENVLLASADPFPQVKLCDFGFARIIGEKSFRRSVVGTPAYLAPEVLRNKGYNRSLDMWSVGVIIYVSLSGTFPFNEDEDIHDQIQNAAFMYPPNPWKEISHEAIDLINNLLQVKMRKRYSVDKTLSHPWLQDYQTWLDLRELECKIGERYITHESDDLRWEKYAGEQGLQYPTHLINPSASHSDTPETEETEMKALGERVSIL

[11] = target: panel of 255 wild-type kinases (Homo sapiens, UniProt P00519); conditions: ABL kinase assay, 1 µmol/L single concentration, cited from earlier work
[12] = target: panel of 255 wild-type kinases (Homo sapiens, UniProt Q9H4B4); conditions: kinase PLK3, 1 µmol/L single concentration, cited from earlier work
[13] = ref DOI: 10.1371/journal.pone.0092146
[14] = ref DOI: 10.1158/1535-7163.MCT-18-0877

SMILES | %-inhibition, MSK2 [1, 13] | %-inhibition at 1 µmol/L, DYRK2 [2, 13] | %-inhibition at 1 µmol/L, IGF1R [4, 13] | %-inhibition CaMK2δ [5, 13] | %-inhibition CDC2/CycB1 [6, 13] | %-inhibition at 1 µmol/L, DYRK1B [7, 13] | %-inhibition, p38α [8, 13] | %-inhibition, MINK [9, 13] | %-inhibition, MSK2 [1, 14] | %-inhibition at 1 µmol/L, DYRK2 [2, 14] | %-inhibition at 1 µmol/L, KDR [3, 14] | %-inhibition at 1 µmol/L, IGF1R [4, 14] | %-inhibition CaMK2δ [5, 14] | %-inhibition CDC2/CycB1 [6, 14] | %-inhibition at 1 µmol/L, DYRK1B [7, 14] | %-inhibition, p38α [8, 14] | %-inhibition at 1 µmol/L, PKD1 [10, 14] | %-inhibition ABL [11, 14] | %-inhibition at 1 µmol/L, PLK3 [12, 14] | %-inhibition, MINK [9, 14] | other results
CCCS(=O)(=O)Nc1ccc(F)c(C(=O)c2c[nH]c3ncc(-c4ccc(Cl)cc4)cc23)c1F [vemurafenib] | -1% | 1% | 10% | -0.235% | 10% | -1.74% | 10% | 10% | – | – | – | – | – | – | – | – | – | – | – | – | %-inhibition at 1 µmol/L, KDR [3, 13]: 13%; %-inhibition at 1 µmol/L, PKD1 [10, 13]: 43%; %-inhibition ABL [11, 13]: 15%; %-inhibition at 1 µmol/L, PLK3 [12, 13]: -2.83%
CC(=O)Nc1cccc(-n2c(=O)n(C3CC3)c(=O)c3c(Nc4ccc(I)cc4F)n(C)c(=O)c(C)c32)c1 [trametinib] | -4.75% | -0.0865% | -10% | -2.19% | 8% | 3.34% | -4% | -1.8% | – | – | – | – | – | – | – | – | – | – | – | – | %-inhibition at 1 µmol/L, KDR [3, 13]: -0.549%; %-inhibition at 1 µmol/L, PKD1 [10, 13]: 9%; %-inhibition ABL [11, 13]: -8%; %-inhibition at 1 µmol/L, PLK3 [12, 13]: -6.59%
CCc1cc2c(cc1N1CCC(N3CCOCC3)CC1)C(C)(C)c1[nH]c3cc(C#N)ccc3c1C2=O [alectinib] | – | – | – | – | – | – | – | – | 1.22% | 6% | 18% | 10% | 37% | 3.54% | 2% | -0.471% | 2% | 5% | -4% | – | –
CC(C)(C)c1nc(-c2cccc(NS(=O)(=O)c3c(F)cccc3F)c2F)c(-c2ccnc(N)n2)s1 [dabrafenib] | – | 6% | – | -0.23% | – | 29% | – | -0.772% | – | – | – | – | – | – | – | – | – | – | – | – | %-inhibition at 1 µmol/L, PKD1 [10, 13]: 83%
CC#CC(=O)N1CCC[C@H]1c1nc(-c2ccc(C(=O)Nc3ccccn3)cc2)c2c(N)nccn12 [acalabrutinib] | – | – | – | – | – | – | – | – | 1.53% | -16% | 7% | 0.466% | -3.53% | -0.397% | -19% | -0.752% | -9.48% | -2.81% | 1.76% | -1.13% | –
O=C(c1ccc(F)c(F)c1Nc1ccc(I)cc1F)N1CC(O)([C@@H]2CCCCN2)C1 [cobimetinib] | – | – | – | – | – | – | – | – | -0.0695% | -2.74% | 13% | 6% | 1.1% | -0.108% | 2% | -5.49% | -5% | -4% | 4% | -2.67% | –
C=CC(=O)Nc1cc(Nc2nccc(-c3cn(C)c4ccccc34)n2)c(OC)cc1N(C)CCN(C)C [osimertinib] | – | – | – | – | – | – | – | – | 0.681% | 45% | 46% | 84% | 19% | 23% | 5% | -6% | 22% | 4.62% | 5% | 21% | –
CO[C@@H]1[C@H](N(C)C(=O)c2ccccc2)C[C@H]2O[C@]1(C)n1c3ccccc3c3c4c(c5c6ccccc6n2c5c31)C(=O)NC4 [midostaurin] | – | – | – | – | – | – | – | – | 77% | – | – | 24% | – | 22% | – | -1.38% | – | 9% | -0.227% | 88% | –
C[C@@H](Oc1cc(-c2cnn(C3CCNCC3)c2)cnc1N)c1c(Cl)ccc(F)c1Cl [crizotinib] | -1.8% | 10% | 80% | 4% | 19% | -3% | -2.27% | 0% | – | – | – | – | – | – | – | – | – | – | – | – | %-inhibition at 1 µmol/L, PLK3 [12, 13]: -2.24%
